According to a melting point compilation (Tetko et al.; mined from patent text by program, amines drawn as free bases though some values may be those of a salt):

With `CC(C)CC(NC(=O)C(Cc1c[nH]cn1)NC(=O)C(CC(=O)NCCc1ccccc1)Cc1cccc2ccccc12)C(O)CO` (mixture of isomers) the melting point was 101 to 107 °C. `Cc1cc(S(=O)(=O)C[N+](=O)[O-])c(C)cc1Cl` showed a melting point of 113 to 114 °C. With `O=C(N1CCc2cc(S(=O)(=O)Cl)ccc2C1)C(F)(F)F` the melting point was 110 to 112 °C. Molecule `COc1ccc(/C=C/c2ccc3nc(C(=O)N[C@@H](Cc4ccc(OCc5ccccc5)cc4)C(=O)O)cn3c2)cc1` has a melting point of 262 to 263 °C. In the case of `CCCCCCCCCCCCNC(=O)c1cc(Br)c(OCCn2ncnn2)c(-c2cccc(C(F)(F)F)c2)c1`, the melting point is reported as 75.6 to 76.2 °C. `COC(C(=O)O)c1ccc2nc(-c3ccc(Cl)cc3)oc2c1` (stereo not given) gave a melting point of 164 to 166 °C. `CC(C)(C)N1C(=O)c2ccc(C(=O)Cl)cc2S1(=O)=O` showed a melting point of 185 to 186 °C. `Cc1cc([N+](=O)[O-])cc(C)c1Oc1ccc(O)c(C(=O)c2ccc(F)cc2)c1` gave a melting point of 148 to 150 °C. Molecule `CCSc1ccnc2sc(C(N)=O)c(N)c12` has a melting point of 230 to 235 °C. With `N#CCCNC(=O)c1cccc(-c2cc3c(ccn3Cc3ccc(Cl)cc3Cl)cn2)c1` the melting point was 199 to 200 °C. Molecule `CCCc1c(OCC(C)CC(=O)NCCCCc2cccnc2)ccc(C(C)=O)c1O` (stereo not given) has a melting point of 58 to 60 °C. `CC12CCC(O)CC1=CCC1C2CCC2(C)C(=C(F)CO)CCC12` (stereo not given) gave a melting point of 198 to 203 °C. With `COc1ccc2sc(C3=C(C(C)(C)C)C(C)(C)CO3)cc2c1` the melting point was 58 to 59 °C. Molecule `COc1ccc(-c2cncc(OC3SCC(O)C(O)C3O)c2)cc1F` (stereo not given) has a melting point of 200 °C. `Cc1sc(-c2ccc(F)cc2)nc1O` gave a melting point of 173 to 174 °C. In the case of `COc1ccc(N)cc1CNC(C)=O`, the melting point is reported as 123 to 125 °C. For `Cc1[nH]c(/C=C2\C(=O)Nc3cc(NC(=O)c4cccn(-c5ccc(F)cc5)c4=O)ccc32)c(C)c1CC(=O)O`, the melting point was > 300 °C. `CNC1=Nc2sc(Cl)cc2C(c2ccccc2)=NC1` gave a melting point of 247 to 250 °C. For `CC1(C)CC(=C2CC(C)(C)NC(C)(C)C2)CC(C)(C)N1`, the melting point was 144 to 145 °C. `CCOC(=O)Nc1ccn2cc(C)nc2c1I` gave a melting point of 148 °C. In the case of `CC(=O)OC1CSC(Oc2cccnc2-c2nnn[nH]2)C(OC(C)=O)C1OC(C)=O` (stereo not given), the melting point is reported as 119 to 127 °C. In the case of `Cc1ccc(-c2cc(OCC3CO3)c3ccccc3n2)cc1` (racemic), the melting point is reported as 100 to 102 °C. `CCOC1CCC(=O)N1S(=O)(=O)C=Cc1ccc(OC)cc1` (stereo not given) showed a melting point of 134 to 136 °C. `CC1CC(=O)NN=C1c1ccc(NC(=O)C2(C)CC2)cc1` (stereo not given) gave a melting point of 235 to 237 °C. In the case of `CCNC(=O)Oc1ccccc1`, the melting point is reported as 49 to 50 °C. With `CCOC(=O)C1=C(C)NC(C)=C(C(=O)OC)C1c1ccc(SC)cc1` (stereo not given) the melting point was 163 °C. `CC(=O)N1CCN2c3c(cccc3C3CCCC32)C1` (stereo not given) showed a melting point of 111 to 113 °C. Work on `COC(=O)c1ccn2c1C(C(=O)OC)CCC2` (stereo not given) yielded a melting point of 108 °C. With `CCCSc1cc(-c2ccc(C(F)(F)F)cc2)c(F)cc1[N+](=O)[O-]` the melting point was 57 to 59 °C. `CN(C)Cc1nc(CO)nn1-c1ccc(Cl)cc1C(O)c1ccccc1` (stereo not given) gave a melting point of 121 to 123 °C. `CCCCCCCNC(=O)Nc1ccc(N)cc1C(=O)NC1CCN(C(c2ccccc2)c2ccccc2)CC1` gave a melting point of 190 to 192 °C. With `CN(C(=O)COc1nc(C(Cl)(Cl)Cl)ns1)C1=CCCCC1` the melting point was 78 °C. With `O=c1[nH]cc(Cc2ccccc2)cc1Br` the melting point was 151 to 152 °C. `Cc1cccc(C(=O)Nc2c[nH]nc2C(=O)NCCC(=O)O)n1` gave a melting point of 246 to 247 °C. Molecule `CCOC(=O)C1OC1C(=O)NC(CC(C)C)C(=O)NCCC(C)CO` (stereo not given) has a melting point of 92 to 95 °C. `Cc1ccc(-c2cc[nH]c2CC[N+](=O)[O-])cc1` showed a melting point of 81 to 82 °C. `Cc1cc(C)cc(C(=O)N2CCC(Nc3nc4ccccc4n3Cc3cccs3)CC2Cc2ccccc2)c1` (stereo not given) gave a melting point of 201 °C. With `NC(=O)c1cn(C2CCCC2)nc1N` the melting point was 179 to 181 °C. Work on `CCOC(=O)Cn1cc(Cc2nc3c(F)c(F)cc(F)c3s2)c2ccc(CC)nc21` yielded a melting point of 114 to 115 °C. Work on `CCC12CCC3C4=C(CC(OC)=CC4)C(C)CC3C1CCC2=O` (stereo not given) yielded a melting point of 118 to 125 °C. With `CCOC(=O)C1=C(c2cccs2)Nc2n[nH]cc2C1c1ccccc1Cl` (stereo not given) the melting point was 200 °C. `CCc1cc(C(C)=O)c(O)cc1OCCCC(C)(C)C#N` showed a melting point of 55 to 56 °C. For `O=C1NCc2c1c1c3cc(O)ccc3[nH]c1c1[nH]c3ccc(O)cc3c21`, the melting point was > 330 °C. `O=c1c2c(Cc3ccccc3Cl)n[nH]c2c2cccnc2n1-c1cccc(C(F)(F)F)c1` gave a melting point of 276 to 278 °C. Molecule `COc1ccc(N2CCN(c3ccc([N+](=O)[O-])cc3)CC2)cc1` has a melting point of 195 °C. With `Nc1cccnc1Nc1ccc(Cl)cc1C(=O)c1ccccc1Cl` the melting point was 162 to 164 °C. Molecule `O=C(NCCO)/C(=C/c1ccc(OC(F)(F)F)cc1)NC(=O)c1ccc(OCC2CCC2)cc1` has a melting point of 168 to 170 °C. Molecule `CCCCCc1ccc(C(=O)Cc2cccc(C(=O)O)c2)cc1` has a melting point of 109 to 111 °C. Molecule `C=C(C)Cn1c(N)cc(=O)[nH]c1=O` has a melting point of 267 to 269 °C. `CCOC(=O)C(N=Nc1sc(C)c(C)c1C(=O)c1ccccc1)NC(=O)CCl` (stereo not given) gave a melting point of 123 to 125 °C.
